In patent US20150315202A1, “CHLORIN DERIVATIVE USEFUL IN PHOTODYNAMIC THERAPY AND DIAGNOSIS” (RMW CHO GROUP LIMITED, priority 2012, published 2015):
Entries after “also recorded” stand apart in the source; their conditions may differ.

Key:
Set-up in all cases: species or system human
[1] = tested on: invasive ductile breast cancer and lymph node metastases; test: In vivo studies Example 1: patient, oral chlorin e4 sodium plus laser and LED light
Procedure: A patient with invasive ductile breast cancer and lymph node metastases in the right arm pit, was treated successfully. Prior to treatment a large cancer mass in the right breast was observed and a small cancer mass in the right arm pit. The treatment consisted of three courses. For each course, five doses of 62.5-187.5 mg chlorin e4 sodium were administered orally over the course of eight days. 24-48 hours after each oral dose of chlorin e4 sodium, the patient was treated with laser and LED light having a wavelength of 660 nm and 760 nm.
Subsequently the patient was treated with two further courses. Again, for each course, five doses of 62.5-187.5 mg chlorin e4 sodium were administered orally over the course of eight days. 24-48 hours after each oral dose of chlorin e4 sodium, the patient was treated with laser and LED light having a wavelength of 660 nm and 760 nm. Additionally an interstitial light treatment using a fine needle was performed on the breast with an optical fibre laser having a wavelength of 660 nm and 760 nm.

[2] = tested on: advanced metastatic kidney disease with metastases in the gall bladder, liver and lung; test: In vivo studies Example 3: patient, oral chlorin e4 sodium plus laser and LED light
Procedure: (§1) A patient with advanced metastatic kidney disease with metastases in the gall bladder, liver and lung, was treated successfully. The treatment consisted of three courses. For each course, five doses of 62.5-187.5 mg chlorin e4 sodium were administered orally over the course of eight days. 24-48 hours after each oral dose of chlorin e4 sodium, the patient was treated with laser and LED light having a wavelength of 660 nm and 760 nm.
Subsequently the patient was treated with a further two courses. Again, for each course, five doses of 62.5-187.5 mg chlorin e4 sodium were administered orally over the course of eight days. 24-48 hours after each oral dose of chlorin e4 sodium, the patient was treated with laser and LED light having a wavelength of 660 nm and 760 nm. Additionally an interstitial light treatment using a fine needle was performed on the liver and lung with an optical fibre laser having a wavelength of 660 nm and 760 nm.

[3] = tested on: brain cancer with metastases in the lung and lymph nodes; test: In vivo studies Example 12: patient, oral chlorin e4 sodium plus laser and LED light; settings: after two courses
Procedure: as §1, with “brain cancer” for “advanced metastatic kidney disease”, “lung” for “gall bladder, liver”, “lymph nodes,” for “lung,”, “successfully. […] The patient experienced occasional epileptic seizures and severe headaches.” for “successfully.”, “two” for “three”

For `C=Cc1c(C)c2cc3nc(c(C)c4[nH]c(cc5nc(cc1[nH]2)C(C)=C5CC)c(C)c4C(=O)O)[C@@H](CCC(=O)O)[C@@H]3C` [chlorin e4 sodium], the “Response in the breast and lymph nodes (PET/CT)” value ([1]; after the fifth and final treatment course) was “complete response”, the “Reduction in size of large cancer mass in the breast (doppler ultrasound)” value ([1]; after the fourth treatment course) was “about 25%” and the “Size of large cancer mass in the breast (doppler ultrasound)” value ([1]; after three courses) was “had not reduced in size”. The “Vascularity of large cancer mass in the breast (doppler ultrasound)” value ([1]; after three courses) was “almost no vascularity”, the “Vascularity of smaller lymph node cancer mass (doppler ultrasound)” value ([1]; after three courses) was “almost no vascularity” and the “Size of smaller lymph node cancer mass” value ([1]; after three courses, reduced from 1.9 cm) was 1 cm. The “Reactions at the breast tumour site” value ([1]; inflammatory response after each course, burning sensation towards the end of the second course) was “inflammatory response; also recorded: burning sensation”, the Patient status ([1]; two years and three months after starting, five months after completion of treatment) was “alive and well” and the “Response (PET/CT)” value ([2]; after a further two courses with interstitial light on liver and lung) was “good treatment response”. The Metastasis ([2]; after three courses) was “No further metastasis was observed”, the “Tumours throughout the body (PET/CT)” value ([2]; before and two, three, five and 15 months after three courses) was “some tumours disappeared altogether and the remaining tumours reduced in size” and the Side effects ([2]; five courses) was “no side effects”. The Survival time ([2]; life expectancy prior to treatment only six months) was “two years and four months”, the “Lymph nodes (PET/CT)” value [3] was “not yet clear” and the “Metabolic activity in the area of the brain tumour (PET/CT)” value [3] was “no metabolic activity”. The “Response in the lungs (PET/CT)” value [3] was “complete response”.
